Assay results reported in patent publication US9561212B2, “Hepatitis C virus inhibitors” (BRISTOL-MYERS SQUIBB COMPANY, priority 2012, dated 2017).
Where two headings read alike, the source gives them in different places.

Tested on: HCV 1b genotype
Assay: microbe, parasite or virus in culture
Format: cell-based, Hepatitis C virus
Description: An HCV Replicon assay was utilized in the present disclosure, and was prepared, conducted and validated as described in commonly owned PCT/US2006/022197 and in O'Boyle et. al. Antimicrob Agents Chemother. 2005 April; 49(4):1346-53. Assay methods incorporating luciferase reporters have also been used as described (Apath.com).
HCV-neo replicon cells and replicon cells containing resistance substitutions in the NS5A region were used to test the currently described family of compounds.

[1] = HCV 1b replicon, read-out: Range: EC50 ranges against HCV 1b
[2] = Hepatitis C virus, HCV 1b replicon, read-out: Range: EC50 ranges against HCV 1b
[3] = Hepatitis C virus, HCV 1b replicon, read-out: 1b (μM): EC50 (Effective 50% inhibitory concentration) against the HCV 1b genotype

`COC(=O)NC(C(=O)N1CC(C)CC1c1ncc(-c2ccc(C3CC3c3ccc(-c4cnc(C5CC(C)CN5C(=O)C(NC(=O)OC)C5CCOC6(CC6)C5)[nH]4)cc3)cc2)[nH]1)C1CCOC2(CC2)C1` [Example OL1, dimethyl (((3S,3′S,5S,5′S)-5,5′-(5,5′-((1S,2S)-cyclopropane-1,2-diylbis(4,1-phenylene))bis(1H-imidazole-5,2-diyl))bis(3-methylpyrrolidine-5,1-diyl))bis(2-oxo-1-(4-oxaspiro[2.5]octan-7-yl)ethane-2,1-diyl))dicarbamate] was tested. Which EC50 [1] did it give?
Its EC50 is 5.01 to 100 pM.

`COC(=O)NC(C(=O)N1[C@@H](C)CC[C@H]1c1ncc(-c2ccc(-c3ccc(-c4cnc([C@@H]5CC[C@H](C)N5C(=O)C(NC(=O)OC)C5CCOC6(CCCC6)C5)[nH]4)cc3)cc2)[nH]1)C1CCOC2(CCCC2)C1` (single isomer, unassigned) [Example 3.1] was tested. Which EC50 [1] did it give?
Its EC50 is 900 to 700000 pM.

Which results are given for `COC(=O)N[C@@H](C(=O)N1C(c2nc(-c3ccc(-c4ccc(-c5c[nH]c(C6C[C@H]7CC7N6C(=O)[C@H](NC(=O)OC)C6C[C@@H]7[C@H](C6)C7(F)F)n5)cc4)cc3)c[nH]2)C[C@H]2CC21)C1C[C@@H]2[C@H](C1)C2(F)F` (single isomer, unassigned; diastereomer 3) [QC2.3]?
EC50 (HCV 1b replicon, read-out: 1b (μM): EC50 (Effective 50% inhibitory concentration) against the HCV 1b genotype): 1080 pM; EC50 [1]: 900 to 700000 pM

`COC(=O)N[C@H](C(=O)N1[C@@H](C)CC[C@H]1c1ncc(-c2ccc(-c3ccc(-c4cnc([C@@H]5CC[C@H](C)N5C(=O)[C@@H](NC(=O)OC)[C@@H]5CCO[C@@H](C6CC6)C5)[nH]4)cc3)cc2)[nH]1)[C@@H]1CCO[C@@H](C2CC2)C1` [Example 6] was tested. Which EC50 [2] did it give?
The EC50 was 5.01 to 100 pM.

With `COC(=O)N[C@H](C(=O)N1[C@@H](CF)CC[C@H]1c1ncc(-c2ccc(-c3ccc(-c4cnc([C@@H]5CC[C@H](CF)N5C(=O)[C@@H](NC(=O)OC)[C@H]5CCOC6(CC6)C5)[nH]4)cc3)cc2)[nH]1)[C@H]1CCOC2(CC2)C1` [Example 8] as the compound, how does the EC50 [2] read?
The EC50 was 5.01 to 100 pM.

With `COC(=O)NC(C(=O)N1C(c2nc(Cl)c(-c3ccc(-c4ccc(-c5[nH]c(C6CC7CC7N6C(=O)C(NC(=O)OC)C6CCOC7(CC7)C6)nc5Cl)cc4)cc3)[nH]2)CC2CC21)C1CCOC2(CC2)C1` [OL5, dimethyl (((1R,1′R,3S,3′S,5R,5′R)-3,3′-(5,5′-([1,1′-biphenyl]-4,4′-diyl)bis(4-chloro-1H-imidazole-5,2-diyl))bis(2-azabicyclo[3.1.0]hexane-3,2-diyl))bis(2-oxo-1-(4-oxaspiro[2.5]octan-7-yl)ethane-2,1-diyl))dicarbamate] as the compound, how does the EC50 (read-out: Range: EC50 ranges against HCV 1b) read?
Its EC50 is 5.01 to 100 pM.

For `COC(=O)NC(C(=O)N1C(c2ncc(-c3ccc(C#Cc4ccc(-c5cnc(C6CC7CC7N6C(=O)C(NC(=O)OC)C6CCOC7(CC7)C6)[nH]5)cc4)cc3)[nH]2)CC2CC21)C1CCOC2(CC2)C1` [OL4, dimethyl (((1R,1′R,3S,3′S,5R,5′R)-3,3′-(5,5′-(ethyne-1,2-diylbis(4,1-phenylene))bis(1H-imidazole-5,2-diyl))bis(2-azabicyclo[3.1.0]hexane-3,2-diyl))bis(2-oxo-1-(4-oxaspiro[2.5]octan-7-yl)ethane-2,1-diyl))dicarbamate], which EC50 [1] is on record?
The EC50 was 5.01 to 100 pM.

`C=C1CC(C(NC(=O)OC)C(=O)N2[C@@H](C)CC[C@H]2c2ncc(-c3ccc(-c4ccc(-c5cnc([C@@H]6CC[C@H](C)N6C(=O)C(NC(=O)OC)C6CC(=C)C6)[nH]5)cc4)cc3)[nH]2)C1` (some centres unmarked) [Example 4.2] was tested. Which EC50 [3] did it give?
The EC50 was 243 pM.

What about the EC50 [2] of the same compound?
Its EC50 is 100 to 900 pM.

With `COC(=O)NC(C(=O)N1[C@@H](C)CC[C@H]1c1ncc(-c2ccc(-c3ccc(-c4cnc([C@@H]5CC[C@H](C)N5C(=O)C(NC(=O)OC)C5CCOC6(CCCC6)C5)[nH]4)cc3)cc2)[nH]1)C1CCOC2(CCCC2)C1` (single isomer, unassigned) [Example 3.4] as the compound, how does the EC50 [1] read?
Its EC50 is 5.01 to 100 pM.

With `COC(=O)NC(C(=O)N1CCCC1c1nc2cc(C#Cc3ccc4[nH]c(C5CCCN5C(=O)C(NC(=O)OC)C5CCOC6(CC6)C5)nc4c3)ccc2[nH]1)C1CCOC2(CC2)C1` [OL9, dimethyl (((2S,2′S)-2,2′-(5,5′-(ethyne-1,2-diyl)bis(1H-benzo[d]imidazole-5,2-diyl))bis(pyrrolidine-2,1-diyl))bis(2-oxo-1-(4-oxaspiro[2.5]octan-7-ypethane-2,1-diyl))dicarbamate] as the compound, how does the EC50 [1] read?
The EC50 was 100 to 900 pM.

For `COC(=O)NC(C(=O)N1CCCC1c1ncc(-c2ccc(C#Cc3ccc(-c4cnc(C5CCCN5C(=O)C(NC(=O)OC)C5CCOC6(CC6)C5)[nH]4)cc3)cc2)[nH]1)C1CCOC2(CC2)C1` [OL7, dimethyl (((2S,2′S)-2,2′-(5,5′-(ethyne-1,2-diylbis(4,1-phenylene))bis(1H-imidazole-5,2-diyl))bis(pyrrolidine-2,1-diyl))bis(2-oxo-1-(4-oxaspiro[2.5]octan-7-yl)ethane-2,1-diyl))dicarbamate], which EC50 [1] is on record?
The EC50 was 5.01 to 100 pM.

How did the EC50 [2] turn out when `C#C[C@H]1CC[C@@H](c2ncc(-c3ccc(-c4ccc(-c5cnc([C@@H]6CC[C@H](C#C)N6C(=O)[C@@H](NC(=O)OC)C6C[C@@H](C)O[C@H](C)C6)[nH]5)cc4)cc3)[nH]2)N1C(=O)[C@@H](NC(=O)OC)C1C[C@@H](C)O[C@H](C)C1` (stereo partly drawn) [Example 10, dimethyl (4,4′-biphenyldiylbis(1H-imidazole-5,2-diyl((2S,5R)-5-ethynyl-2,1-pyrrolidinediyl)((1S)-1-((2R,6R)-2,6-dimethyltetrahydro-2H-pyran-4-yl)-2-oxo-2,1-ethanediyl)))biscarbamate] was run?
The EC50 was 5.01 to 100 pM.

For `COC(=O)NC(C(=O)N1CCC[C@H]1c1ncc(-c2ccc(-c3ccc(-c4cnc([C@@H]5CCCN5C(=O)C(NC(=O)OC)C5CCOC6(CC6)C5)[nH]4)cn3)cc2)[nH]1)C1CCOC2(CC2)C1` (stereo partly drawn) [OL6, methyl (2-((2S)-2-(5-(6-(4-(2-((2S)-1-(((methoxycarbonyl)amino)(4-oxaspiro[2.5]oct-7-yl)acetyl)pyrrolidin-2-yl)-1H-imidazol-5-yl)phenyl)pyridin-3-yl)-1H-imidazol-2-yl)pyrrolidin-1-yl)-1-(4-oxaspiro[2.5]oct-7-yl)-2-oxoethyl)carbamate], which EC50 [2] is on record?
Its EC50 is 100 to 900 pM.

`COC(=O)NC(C(=O)N1[C@@H](C)CC[C@H]1c1ncc(-c2ccc(-c3ccc(-c4cnc([C@@H]5CC[C@H](C)N5C(=O)C(NC(=O)OC)C5CCOC6(CCC6)C5)[nH]4)cc3)cc2)[nH]1)C1CCOC2(CCC2)C1` (single isomer, unassigned) [Example 2.1] was tested. Which EC50 [1] did it give?
Its EC50 is 900 to 700000 pM.

For `COC(=O)N[C@H](C(=O)N1[C@@H](CO)CC[C@H]1c1ncc(-c2ccc(-c3ccc(-c4cnc([C@@H]5CC[C@H](CO)N5C(=O)[C@@H](NC(=O)OC)C5C[C@@H](C)O[C@H](C)C5)[nH]4)cc3)cc2)[nH]1)C1C[C@@H](C)O[C@H](C)C1` (single isomer, unassigned) [Example 11], which EC50 [2] is on record?
Its EC50 is 900 to 700000 pM.

`COC(=O)NC(C(=O)N1[C@@H]2C[C@@H]2C[C@H]1c1nc(-c2ccc(-c3ccc(-c4c[nH]c([C@@H]5C[C@H]6C[C@H]6N5C(=O)C(NC(=O)OC)C5C[C@@H]6C[C@@H]6C5)n4)cc3)cc2)c[nH]1)C1C[C@@H]2C[C@@H]2C1` (single isomer, unassigned; diastereomer 2) [QC3.2] was tested. Which EC50 [1] did it give?
The EC50 was 5.01 to 100 pM.

For `COC(=O)N[C@H](C(=O)N1[C@@H](C)CC[C@H]1c1ncc(-c2ccc(-c3ccc(-c4cnc([C@@H]5CC[C@H](C)N5C(=O)[C@@H](NC(=O)OC)[C@H]5C[C@@H](C)O[C@H](C6CC6)C5)[nH]4)cc3)cc2)[nH]1)[C@H]1C[C@@H](C)O[C@H](C2CC2)C1` [Example 9.4, dimethyl ((R,S,S,1S,1′S)-((2S,2′S,5S,5′S)-5,5′-(5,5′-([1,1′-biphenyl]-4,4′-diyl)bis(1H-imidazole-5,2-diyl))bis(2-methylpyrrolidine-5,1-diyl))bis(1-((2S,4S,6R)-2-cyclopropyl-6-methyltetrahydro-2H-pyran-4-yl)-2-oxoethane-2,1-diyl))dicarbamate], which EC50 [3] is on record?
Its EC50 is 9.3 pM.

What about the EC50 [2] of the same compound?
Its EC50 is 5.01 to 100 pM.

Which results are given for `COC(=O)NC(C(=O)N1[C@@H](C)CC[C@H]1c1ncc(-c2ccc(-c3ccc(-c4cnc([C@@H]5CC[C@H](C)N5C(=O)C(NC(=O)OC)C5CCOC6(CCCC6)C5)[nH]4)cc3)cc2)[nH]1)C1CCOC2(CCCC2)C1` (single isomer, unassigned) [Example 3.3]?
EC50 [1]: 5.01 to 100 pM; EC50 [3]: 5.04 pM

How did the EC50 [1] turn out when `COC(=O)NC(C(=O)N1[C@@H]2C[C@@H]2C[C@H]1c1nc(-c2ccc(-c3ccc(-c4c[nH]c([C@@H]5C[C@H]6C[C@H]6N5C(=O)C(NC(=O)OC)C5[C@H]6COC[C@@H]56)n4)cc3)cc2)c[nH]1)C1[C@H]2COC[C@@H]12` (single isomer, unassigned; diastereomer 1) [QC4.1] was run?
The EC50 was 5.01 to 100 pM.

`COC(=O)N[C@H](C(=O)N1[C@@H]2C[C@@H]2C[C@H]1c1nc(-c2ccc(-c3ccc(-c4c[nH]c([C@@H]5C[C@H]6C[C@H]6N5C(=O)[C@@H](NC(=O)OC)C56CC(C(F)(F)F)(C5)C6)n4)cc3)cc2)c[nH]1)C12CC(C(F)(F)F)(C1)C2` [Example OL11, dimethyl (4,4′-biphenyldiylbis(1H-imidazole-4,2-diyl(1R,3S,5R)-2-azabicyclo[3.1.0]hexane-3,2-diyl((1S)-2-oxo-1-(3-(trifluoromethyl)bicyclo[1.1.1]pent-1-yl)-2,1-ethanediyl)))biscarbamate] was tested. Which EC50 [2] did it give?
Its EC50 is 5.01 to 100 pM.

Which results are given for `COC(=O)NC(C(=O)N1[C@@H]2C[C@@H]2C[C@H]1c1nc(-c2ccc(-c3ccc(-c4c[nH]c([C@@H]5C[C@H]6C[C@H]6N5C(=O)C(NC(=O)OC)[C@H]5C[C@@H]6C[C@@H]6C5)n4)cc3)cc2)c[nH]1)[C@H]1C[C@@H]2C[C@@H]2C1` (single isomer, unassigned; diastereomer 3) [QC5.3]?
EC50 [3]: 5.55 pM; EC50 [2]: 5.01 to 100 pM
